Source: patent US6348317B1, “Fluorescent and DNA cleavage properties of peptide/dye conjugates” (The Arizona Board of Regents, priority 1999, dated 2002)

Tests used:
[1] = system: 5′-32P-end-labeled GRE2 duplex DNA; experiment: Radical hydroxyl footprinting; format: binding; details: 60 minutes in the dark at 25° C., 60 seconds reaction
Procedure: The protocol for radical hydroxyl footprinting reactions was adapted from previously established methods, A. Revzin, Ed., Separation, Detection and Characterization of Biological Macromolecules (1993); P. E. Nielsen, J. Molec. Recog. 3:1-25 (1990). Reaction samples comprised of the TO-ZF and 5′^-32P-end-labeled GRE2 in 20 mM Tris (pH 7.9), 40 mM NaCl, 20 mM KCl, 1 mM MgCl2 were allowed to equilibrate in the dark at room temperature for 60 minutes. Equal volumes of a freshly prepared solution of 0.2 mM [Fe(EDTA)]^2− was mixed with a 0.3% H2O2 solution and a 10 mM sodium ascorbate solution and added to the reaction sample. After a one minute incubation, the reactions were quenched with an aqueous solution of 20 mM thiourea and 10 mg/ml tRNA. The footprinting reactions were analyzed on a 15% denaturing polyacrylamide gel.
Footprinting of TO-ZF Conjugate. DNA footprinting by the TO-ZF conjugate was performed to determine if the TO-ZF conjugate was binding the same sequence as the native glucocorticoid receptor protein DNA-binding domain. More specifically, reaction samples (Maxam-Gilbert A+G and C+T sequencing reactions, radical hydroxyl cleavage of GRE2 in the presence of TO-ZF, radical hydroxyl cleavage of GRE2 in the absence of TO-ZF) contained […] duplex DNA and […] TO-ZF, 20 mM Tris (pH 7.9), 40 mM NaCl, 20 mM KCl, 1 mM MgCl2. […]

GRE3 dsDNA = experiment: Photocleavage at 514 nm, PAGE analysis; format: biochemical
Procedure: (§1) The purified DNA strands shown in FIG. 2 were 5′^-32P-end-labeled using T4 polynucleotide kinase and purified as described above. Oxygen removal was performed by bubbling argon through the samples. Irradiations were performed on […] samples in a 1.0 mL glass cuvette fit with a septum using an argon-ion laser at 514 nm with a power of 300 mW/cm^2. After irradiation, samples were divided in half and one portion treated with piperidine, the other immediately frozen. Piperidine treatment consisted of adding an equal volume of freshly prepared 20% piperidine in water to the sample followed by heating at 90° C. for 30 minutes. Both the treated and untreated fractions were dried under vacuum. To each dried sample was added […] of 80% formamide in water. The products of the photocleavage experiments were analyzed on a 15% polyacrylamide (19:1) vertical sequencing gel with dimensions 21 cm×40 cm×0.4 mm. Maxam-Gilbert A+G and C+T sequencing reactions were used as a reference. A. M. Maxam, et al., Meth. Enzymol. 65:499-560 (1980). Gels were run at 2000V for 1.5-2 hours. Gels were dried and exposed to a phosphorimaging screen for 4 hours and analyzed on a Molecular Dynamics Storm-840 gel scanner in phosphorimaging mode.
Photocleavage of TO-ZF conjugate. We examined the photoinduced cleavage of 5′-32P-end-labeled dsDNA fragments containing the dsDNA sequences GRE1, GRE2 and GRE3 in the presence of either unconjugated TO or TO-ZF. […] We have performed similar photocleavage measurements of the complementary strands in the dsDNA duplexes used in each case. […] After irradiation of TO-ZF bound to dsDNA in Tris buffer solution at 514 nm (514 nm is in the main band of the absorbance spectrum of intercalated thiazole orange as shown in FIG. 3), the photo-products were denatured and separated using denaturing polyacrylamide gel electrophoresis (PAGE). […]
To explore other possible mechanisms of thiazole orange mediated photocleavage in the region on the 5′-side of the GRE target sequence, the guanine located within the GRE (5′-TGTTCT-3′) in the GRE1 dsDNA fragment was changed to an adenine to give GRE3 (FIG. 2). […] Fluorescence measurements of TO-ZF binding to GRE1 and GRE3 target sequences (FIG. 5A) show only a modest difference in the dissociation constant between the two sequences. Thus the measured changes in the photocleavage products between GRE1 and GRE3 are not an artifact of strong differences in the binding affinity of TO-ZF between these sequences. […] The total chemical yield of the piperidine dependent reactions in these bands, measured as the number of fluorescence counts in product bands divided by the total counts of a given lane, increased three-fold from 2% in GRE1 (described above) to 6% in GRE3 for samples reacted in the presence of oxygen. […]

GRE2 dsDNA = experiment: Photocleavage at 514 nm, intensity dependence of guanine oxidation; format: biochemical; details: 160 nM duplex DNA, 200 nM TO-ZF, piperidine
Procedure: as §1, with “Maxam-Gilbert A+G and C+T sequencing reactions were used as a reference. A. M. Maxam, et al., Meth. Enzymol. 65:499-560 (1980). Gels were run at 2000V for 1.5-2 hours.” left out
Photocleavage of TO-ZF conjugate. […] After irradiation of TO-ZF bound to dsDNA in Tris buffer solution at 514 nm (514 nm is in the main band of the absorbance spectrum of intercalated thiazole orange as shown in FIG. 3), the photo-products were denatured and separated using denaturing polyacrylamide gel electrophoresis (PAGE). […]

## TO-ZF: 29 amino acid single zinc finger from residues 438-465 of glucocorticoid receptor, thiazole orange coupled to a lysine ε-amine
[1]
  region protected from radical hydroxyl cleavage: protects a four base pair region (TTCT) within the native GRE binding sequence
GRE3 dsDNA; 514 nm, gel electrophoresis
  pattern of photo-induced cleavage: a confined group of bands flanking the altered GRE sequence which are only partially piperidine dependent
GRE3 dsDNA; D2O rather than H2O in the buffer
  increase in band intensity of strand cleavage in the presence of D2O: ≤ 25%
GRE3 dsDNA; piperidine treated samples, absence of oxygen
  lowering of chemical yield in the absence of oxygen: 10-20%
GRE3 dsDNA; samples reacted in the presence of oxygen
  total chemical yield of the piperidine dependent reactions: 6%
GRE2 dsDNA
  preferential site of photocleavage: Preferential cleavage is observed at the 5′-G of the GG sequence
